From patent US20100273772A1, “Bisaryl Alkynylamides as Negative Allosteric Modulators of Metabotropic Glutamate Receptor 5 (MGLUR5)” (Wyeth LLC, priority 2009, published 2010) come the findings set out here.

One experiment addresses T1, rat mGluR5 receptor (Rattus norvegicus, UniProt P31424).
T1 construct: expressed in transfected cells; host or cells: HEK-293
Kind of experiment: [3H]-MPEP binding HEK-293 cell membranes expressing a rat mGluR5 receptor. The settings on record: displacement of 4 nM [3H]-MPEP, HEK-293 cell membranes expressing rat mGluR5, 60 minute at room temperature; read-out: mGluR5 Ligand Binding DR Ki. Here is the method: TITLE: [^3H]-MPEP binding HEK-293 cell membranes expressing a rat mGluR5 receptor. PURPOSE: To identify high affinity compounds at the rat mGluR5 receptor based on their ability to displace the mGluR5 negative allosteric modulator, MPEP.
mGluR5 expressing HEK-293 cells are scraped off the plate, transferred to centrifuge tubes, and washed twice by centrifugation (2000 rpm for 10 min., 4° C.) in buffer (50 mM Tris pH 7.5). The resulting pellets are aliquoted and placed at −80° C. On the day of assay, the cells are thawed on ice, and resuspended in buffer. The binding assay is performed in a 96 well microtiter plate in a total volume of 250 μL. Non-specific binding is determined in the presence of 10 μM MPEP. Binding reaction includes a final radioligand [^3H]-MPEP concentration of 4 nM and 12-25 ug membrane protein per well. Following a 60 minute incubation at room temperature, the reaction is terminated by the addition of ice cold buffer and rapid filtration through a GF/B filter presoaked for 30 minutes in 0.5% PEI. Compounds are initially tested in a single point assay to determine percent inhibition at 10 μM. Subsequently, Ki values are determined for compounds defined to be active.
% inhibition and Ki values generated by GraphPad Prism and Excel Fit. IC50 values are calculated using GraphPad by fitting to a 1 or 2 site-binding model. Ki values are calculated from the apparent IC50 values using the Cheng-Prussof equation:
(§1) where [L]=concentration of free radioligand and Kd=dissociation constant of radioligand for the receptor. TITLE: Identification of metabotropic glutamate receptor 5 antagonists using a stable, sensitive fluorescence-based screening system PURPOSE: The aim of the research presented here was to develop a robust functional assay to measure changes in intracellular calcium, with the goal of identifying potent mGluR5 antagonists.

Experiment [1] addresses T2, metabotropic glutamate receptor 5 (Rattus norvegicus, UniProt P31424).
T2 construct: expressed in transfected cells; host or cells: HEK-293
Kind of experiment: FLIPR Calcium 3 fluorescence-based functional assay of intracellular calcium, mGluR5 antagonist activity. The format is cell-based. The conditions noted are these: inhibition of glutamate (EC90, ~50 uM) stimulated calcium levels, mGluR5 HEK-293 cells; read-out: mGluR5 FLIPR MP Antagonist DR IC50.
Excerpt: as §1
The FLIPR Calcium 3 Assay Kit is designed to work with many cell types, both adherent and non-adherent. Optimal cell conditions for the FLIPR Calcium 3 Assay Kit require the creation of a confluent cell monolayer before placing the plates in FLIPR or FlexStation. In general, we start with 50,000 mGluR5 HEK-293 cells/well for a 96-well plate. For adherent cells, seeding cells overnight with a plating volume of 100 μL/well worked for 96-well plates.
Remove cell plates from the incubator. Remove the supernatant medium. Add 180 ul of Loading Buffer to each well (for 96-well plates). HBSS buffer component B) pipette 100 mL of 10× Hank's Balanced Salt Solution and 20 mL of 1M Hepes buffer
Incubate cell plates for 1 hour at 37° C. and then keep the plates at room temperature until used.
After incubation, transfer the plates directly to FLIPR and begin the calcium assay as described in the FLIPR system manual. For a signal test, a starting average count of ˜10,000 is recommended. Recommended experimental setup parameters are as follows. Faster addition speeds can lead to better mixing of compounds and lower signal variance across the plate.
Test or reference compound is added to the 96-well plate (manually). […] Relative Fluorescence Units (RFUs) are recorded over a given time period (stated above) depending on the platform system used.
For antagonists, results are expressed as % inhibition of glutamate stimulated Calcium levels. IC50 values were calculated by Prism GraphPad using a 4-parameter logistic equation. IC50 values are calculated using GraphPad by fitting to a 1 site-model.

T2 sequence (P31424 21-1203): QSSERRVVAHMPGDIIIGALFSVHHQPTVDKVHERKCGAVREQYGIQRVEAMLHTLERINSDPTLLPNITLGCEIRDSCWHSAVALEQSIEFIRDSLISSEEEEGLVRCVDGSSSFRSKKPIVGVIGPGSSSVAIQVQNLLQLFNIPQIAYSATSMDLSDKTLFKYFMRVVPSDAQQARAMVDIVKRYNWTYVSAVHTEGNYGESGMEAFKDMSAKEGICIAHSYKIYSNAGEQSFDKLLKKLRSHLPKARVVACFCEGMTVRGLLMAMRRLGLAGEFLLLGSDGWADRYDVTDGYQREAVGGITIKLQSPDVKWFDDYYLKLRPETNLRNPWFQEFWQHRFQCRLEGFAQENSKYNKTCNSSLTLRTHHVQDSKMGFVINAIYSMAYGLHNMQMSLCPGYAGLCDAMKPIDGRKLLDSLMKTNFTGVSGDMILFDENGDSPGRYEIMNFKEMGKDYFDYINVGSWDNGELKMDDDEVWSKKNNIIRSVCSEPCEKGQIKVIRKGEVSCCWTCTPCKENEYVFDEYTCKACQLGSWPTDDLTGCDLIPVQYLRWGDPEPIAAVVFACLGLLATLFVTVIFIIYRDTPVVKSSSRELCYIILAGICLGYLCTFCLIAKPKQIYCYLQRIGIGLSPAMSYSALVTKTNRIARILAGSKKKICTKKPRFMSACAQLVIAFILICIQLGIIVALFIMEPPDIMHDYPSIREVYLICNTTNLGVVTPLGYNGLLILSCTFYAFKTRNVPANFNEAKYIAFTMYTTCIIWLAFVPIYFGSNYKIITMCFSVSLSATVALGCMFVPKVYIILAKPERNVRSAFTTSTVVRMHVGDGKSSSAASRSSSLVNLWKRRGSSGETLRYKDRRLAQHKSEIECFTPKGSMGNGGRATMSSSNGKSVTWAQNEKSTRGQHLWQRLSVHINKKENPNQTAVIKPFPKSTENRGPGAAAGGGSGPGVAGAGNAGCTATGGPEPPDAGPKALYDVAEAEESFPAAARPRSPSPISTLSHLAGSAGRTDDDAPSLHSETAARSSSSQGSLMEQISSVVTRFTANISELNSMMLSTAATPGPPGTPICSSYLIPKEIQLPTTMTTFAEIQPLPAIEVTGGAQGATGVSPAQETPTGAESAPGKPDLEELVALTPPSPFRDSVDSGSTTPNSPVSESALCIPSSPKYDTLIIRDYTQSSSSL
T1 sequence (P31424 21-1203): as above

Regarding “2-[4-methoxy-3-(pyridin-2-ylethynyl)benzoyl]-7-(trifluoromethyl)-1,2,3,4-tetrahydroisoquinoline [Example 16]”, the Ki – broadly, the dissociation constant of the complex between target and ligand, obtained from inhibition or displacement – at rat mGluR5 receptor turned out to be 1 nM. Besides, the IC50 – broadly, the midpoint of a concentration-inhibition curve – in experiment [1] is 125 nM. On to “7-fluoro-2-[4-methoxy-3-(pyridin-2-ylethynyl)benzoyl]-1,2,3,4-tetrahydroisoquinoline [Example 9]”, for which, on rat mGluR5 receptor, the inhibitory constant (Ki) was 3 nM. For the same compound, in experiment [1], the concentration for half-maximal inhibition (IC50) amounted to 23 nM.

Turning to `COc1ccc(C(=O)N2Cc3ccccc3C2)cc1C#Cc1ccccn1` [Example 1, 2-[4-Methoxy-3-(pyridin-2-ylethynyl)benzoyl]isoindoline], the Ki on rat mGluR5 receptor was determined as 4 nM. The half-inhibitory concentration (IC50) in experiment [1] came out at 10 nM. For `COc1ccc(C(=O)N2CCc3ccccc3C2)cc1C#Cc1ccccn1` [Example 2, 2-[4-methoxy-3-(pyridin-2-ylethynyl)benzoyl]-1,2,3,4-tetrahydroisoquinoline], on rat mGluR5 receptor, the Ki amounted to 3 nM. The IC50 in experiment [1] came to 24 nM. For `COc1ccc(C(=O)N2CCc3c(F)cccc3C2)cc1C#Cc1ccccn1` [Example 3, 5-fluoro-2-[4-methoxy-3-(pyridin-2-ylethynyl)benzoyl]-1,2,3,4-tetrahydroisoquinoline], in that order: 2 nM and 44 nM. As to `COc1ccc(C(=O)N2CCc3c(cccc3C(F)(F)F)C2)cc1C#Cc1ccccn1` [Example 4, 2-[4-methoxy-3-(pyridin-2-ylethynyl)benzoyl]-5-(trifluoromethyl)-1,2,3,4-tetrahydroisoquinoline], the inhibition constant Ki on rat mGluR5 receptor stood at 0.4 nM. Further, in experiment [1], the IC50 stood at 134 nM. For `COc1ccc(C(=O)N2CCc3cccc(C(F)(F)F)c3C2)cc1C#Cc1ccccn1` [Example 5, 2-[4-methoxy-3-(pyridin-2-ylethynyl)benzoyl]-8-(trifluoromethyl)-1,2,3,4-tetrahydroisoquinoline], in that order: 2 nM and 151 nM.

Regarding `COc1ccc(C(=O)N2CCc3c(F)ccc(F)c3C2)cc1C#Cc1ccccn1` [Example 6, 5,8-difluoro-2-[4-methoxy-3-(pyridin-2-ylethynyl)benzoyl]-1,2,3,4-tetrahydroisoquinoline], the Ki at rat mGluR5 receptor was determined as 2 nM. The concentration for half-maximal inhibition (IC50) in experiment [1] was 52 nM. As to `COc1ccc(C(=O)N2CCc3c(Cl)cc(Cl)cc3C2)cc1C#Cc1ccccn1` [Example 7, 5,7-dichloro-2-[4-methoxy-3-(pyridin-2-ylethynyl)benzoyl]-1,2,3,4-tetrahydroisoquinoline], in experiment [1], the IC50 was determined as 176 nM. As for `COc1ccc(C(=O)N2CCc3ccc(Cl)cc3C2)cc1C#Cc1ccccn1` [Example 8, 7-chloro-2-[4-methoxy-3-(pyridin-2-ylethynyl)benzoyl]-1,2,3,4-tetrahydroisoquinoline], the Ki at rat mGluR5 receptor turned out to be 1 nM. Further, the IC50 in experiment [1] worked out at 16 nM. As to `COc1ccc(C(=O)N2CCc3c(Cl)cccc3C2)cc1C#Cc1ccccn1` [Example 10, 5-chloro-2-[4-methoxy-3-(pyridin-2-ylethynyl)benzoyl]-1,2,3,4-tetrahydroisoquinoline], the inhibition constant Ki at rat mGluR5 receptor came out at 1 nM. For the same compound, in experiment [1], the IC50 was 50 nM. On to `COc1ccc(C(=O)N2CCc3ccc(C#N)cc3C2)cc1C#Cc1ccccn1` [Example 11, 2-[4-methoxy-3-(pyridin-2-ylethynyl)benzoyl]-1,2,3,4-tetrahydroisoquinoline-7-carbonitrile], for which the Ki on rat mGluR5 receptor amounted to 11 nM. Further, in experiment [1], the IC50 was 130 nM. On to `COc1ccc(C(=O)N2CCc3[nH]c4ccccc4c3C2)cc1C#Cc1ccccn1` [Example 12, 2-[4-methoxy-3-(pyridin-2-ylethynyl)benzoyl]-2,3,4,5-tetrahydro-1H-pyrido[4,3-b]indole], for which, at rat mGluR5 receptor, the Ki came out at 8 nM. In addition, the IC50 in experiment [1] is more than 1000 nM.

As to `COc1ccc(C(=O)N2CCc3sccc3C2)cc1C#Cc1ccccn1` [Example 13, 5-[4-methoxy-3-(pyridin-2-ylethynyl)benzoyl]-4,5,6,7-tetrahydrothieno[3,2-c]pyridine], the Ki on rat mGluR5 receptor worked out at 5 nM. In addition, the 50% inhibitory concentration (IC50) in experiment [1] was found to be 44 nM.

Take `COc1ccc(C(=O)N2CCc3ncc(Br)cc3C2)cc1C#Cc1ccccn1` [Example 14, 3-bromo-6-[4-methoxy-3-(pyridin-2-ylethynyl)benzoyl]-5,6,7,8-tetrahydro-1,6-naphthyridine]: on rat mGluR5 receptor, the inhibition constant Ki was 8 nM. The IC50 in experiment [1] turned out to be 51 nM. On to `COc1ccc(C(=O)N2CCc3c(OC)ccc(OC)c3C2)cc1C#Cc1ccccn1` [Example 19, 5,8-dimethoxy-2-[4-methoxy-3-(pyridin-2-ylethynyl)benzoyl]-1,2,3,4-tetrahydroisoquinoline], for which the Ki on rat mGluR5 receptor turned out to be 6 nM. Also, the IC50 in experiment [1] turned out to be 30 nM. As to `COc1ccc(C(=O)N2CCc3cc(OC)c(OC)cc3C2)cc1C#Cc1ccccn1` [Example 20, 6,7-dimethoxy-2-[4-methoxy-3-(pyridin-2-ylethynyl)benzoyl]-1,2,3,4-tetrahydroisoquinoline], the Ki on rat mGluR5 receptor was found to be 36 nM. Moreover, the IC50 in experiment [1] was determined as 49 nM. For the compound `COc1ccc(C(=O)N2CCc3cccc(OC)c3C2)cc1C#Cc1ccccn1` [Example 21, 8-methoxy-2-[4-methoxy-3-(pyridin-2-ylethynyl)benzoyl]-1,2,3,4-tetrahydroisoquinoline], the inhibition constant Ki at rat mGluR5 receptor came out at 3 nM. Besides, the IC50 in experiment [1] was 34 nM. For `COc1ccc(C(=O)N2CCc3ccccc3C2c2cccs2)cc1C#Cc1ccccn1` (stereo not shown) [Example 22, 2-[4-methoxy-3-(pyridin-2-ylethynyl)benzoyl]-1-(2-thienyl)-1,2,3,4-tetrahydroisoquinoline], in that order: 22 nM and 220 nM.

`COc1ccc(C(=O)N2Cc3ccccc3C(S(=O)(=O)N3CCS(=O)(=O)CC3)C2)cc1C#Cc1ccccn1` (stereo not shown) [Example 25, 4-[(1,1-dioxidothiomorpholin-4-yl)sulfonyl]-2-[4-methoxy-3-(pyridin-2-ylethynyl)benzoyl]-1,2,3,4-tetrahydroisoquinoline]: at rat mGluR5 receptor, the Ki was determined as 70 nM. Further, the IC50 in experiment [1] came out at 97 nM. For `COc1ccc(C(=O)N2CCc3ccccc3C2c2ccccc2)cc1C#Cc1ccccn1` (stereo not shown) [Example 26, 2-[4-methoxy-3-(pyridin-2-ylethynyl)benzoyl]-1-phenyl-1,2,3,4-tetrahydroisoquinoline], in that order: 57 nM and 169 nM. `COc1ccc(C(=O)N2CCc3ccccc3C2c2ccco2)cc1C#Cc1ccccn1` (stereo not shown) [Example 27, 1-(2-furyl)-2-[4-methoxy-3-(pyridin-2-ylethynyl)benzoyl]-1,2,3,4-tetrahydroisoquinoline]: the Ki on rat mGluR5 receptor came out at 21 nM. The IC50 in experiment [1] is 40 nM.

With `COc1ccc(C(=O)N2Cc3ccccc3C(CNc3ccccc3)C2)cc1C#Cc1ccccn1` (stereo not shown) [Example 29, N-({2-[4-methoxy-3-(pyridin-2-ylethynyl)benzoyl]-1,2,3,4-tetrahydroisoquinolin-4-yl}methyl)aniline], the inhibition constant Ki at rat mGluR5 receptor stood at 68 nM. Besides, the IC50 in experiment [1] is 447 nM.

With `COc1ccc2c(c1)CCN(C(=O)c1ccc(OC)c(C#Cc3ccccn3)c1)C2` [Example 31, 6-methoxy-2-[4-methoxy-3-(pyridin-2-ylethynyl)benzoyl]-1,2,3,4-tetrahydroisoquinoline], the Ki at rat mGluR5 receptor was 8 nM. Besides, the IC50 in experiment [1] is 61 nM.

Turning to `COc1ccc(C(=O)N2Cc3ccc(C)cc3C2)cc1C#Cc1ccccn1` [Example 32, 2-[4-methoxy-3-(pyridin-2-ylethynyl)benzoyl]-5-methylisoindoline], the Ki on rat mGluR5 receptor stood at 3 nM. In addition, the IC50 in experiment [1] was 42 nM.
